According to patent US20140213446A1, “HERBICIDAL COMPOSITIONS AND METHODS USING COMBINATIONS OF 4-AMINO-3-CHLORO-6-(4-CHLORO-2-FLUORO-3-METHOXYPHENYL)PYRIDINE-2-CARBOXYLIC ACID OR A DERIVATIVE THEREOF AND AN ARYLOXYPHENOXY PROPIONATE ACCASE INHIBITOR HERBICIDE” (DOW AGROSCIENCES LLC, priority 2013, published 2014):

Legend:
Assay in all cases: Postemergence foliar-applied herbicidal mixtures, weeds common to row crops
Type in all cases: in vivo
[1] = test system: OEOBI Oenothera biennis (evening primrose)
Source text: (§1) Evaluation of Postemergence Foliar-Applied Herbicidal Mixtures for Control of Weeds Common to Row Crops such as Corn and Soybeans. Seeds or nutlets of the desired test plant species were planted in a soil matrix prepared by mixing a loam or sandy loam soil (e.g., 28.6 percent silt, 18.8 percent clay, and 52.6 percent sand, with a pH of about 5.8 and an organic matter content of about 1.8 percent) and calcareous grit in an 80 to 20 ratio. The soil matrix was contained in plastic pots with a surface area of 84.6 cm^2 and a volume of 560 cubic centimeters (cm^3). When required to ensure good germination and healthy plants, a fungicide treatment and/or other chemical or physical treatment was applied. The plants were grown for 7-31 d in a greenhouse with an approximate 15 h photoperiod which was maintained at about 23-29° C. during the day and 22-28° C. during the night. Nutrients (Peters Excel® 15-5-15 5-Ca 2-Mg) and water were added on a regular basis and supplemental lighting was provided with overhead metal halide 1000-Watt lamps as necessary. The plants were employed for testing when they reached the first, second, or third true leaf stage.
(§2) Treatment requirements were calculated based upon the rates being tested, the concentration of active ingredient or acid equivalent in the formulation, and a 12 mL application volume at a rate of 187 L/ha.
(§3) Treatments consisted of the potassium (K^+) salt of 4-amino-3-chloro-6-(4-chloro-2-fluoro-3-methoxyphenyl)-pyridine-2-carboxylic acid (Cmpd 4) formulated as a soluble liquid (SL), the propargyl ester of 4-amino-3-chloro-6-(4-chloro-2-fluoro-3-methoxyphenyl)-pyridine-2-carboxylic acid (Cmpd 2) as technical grade material, or the benzyl ester of 4-amino-3-chloro-6-(4-chloro-2-fluoro-3-methoxyphenyl)-pyridine-2-carboxylic acid (Cmpd 3) as technical grade material and quizalofop-p-ethyl (Assure® II) alone and in combination. Forms of compound of formula (I) and quizalofop-P-ethyl were applied on an acid equivalent basis.
(§4) For treatments comprised of formulated compounds, measured amounts of compounds were placed individually in 25 mL glass vials and diluted in a volume of 1.5% (v/v) Agri-Dex® crop oil concentrated to obtain 6× stock solutions. […] Application solutions were prepared by adding an appropriate amount of each stock solution (typically 2 mL) and diluted to the appropriate final concentrations with the addition of an appropriate amount of an aqueous mixture of 1.5% (v/v) crop oil concentrate and water so that the final spray solutions contained 1.25+/−0.05% (v/v) crop oil concentrate.
(§5) For treatments comprised of formulated and technical compounds, weighed amounts of the technical materials were placed individually in 25 mL glass vials and dissolved in a volume of 97:3 v/v acetone/DMSO to obtain 6× stock solutions, and measured amounts of the formulated compounds were placed individually in 25 mL glass vials and diluted in a volume of 1.5% (v/v) crop oil concentrate or water to obtain 6× stock solutions. […] Application solutions were prepared by adding an appropriate amount of each stock solution (e.g., 2 mL) and diluted to the appropriate final concentrations with the addition of an appropriate amount of an aqueous mixture of 1.5% (v/v) crop oil concentrate and water so that the final spray solutions contained 1.25% (v/v) crop oil concentrate. When required, additional water and/or 97:3 v/v acetone/DMSO can be added to individual application solutions so that the final acetone and DMSO concentrations of the application solutions being compared are 16.2% and 0.5%, respectively.
(§6) All stock solutions and applications solutions were visually inspected for compound compatibility prior to application. Compound requirements are based upon a 12 mL application volume at a rate of 187 liters per hectare (L/ha). […]

[2] = test system: SORHA Sorghum halepense (L.) Pers. (Johnsongrass)
Source text: as §1, §2, §3, §4, §5, §6

[3] = test system: AVEFA Avena fatua L. (wild oat)
Source text: as §1, §2, §3, §4, §5, §6

[4] = test system: DIGSA Digitaria sanguinalis (L.) Scop. (large crabgrass)
Source text: as §1, §2, §3, §4, §5, §6

[5] = test system: LOLMU Lolium multiflorum Lam. (Italian ryegrass)
Source text: as §1, §2, §3, §4, §5, §6

## C#CCOC(=O)c1nc(-c2ccc(Cl)c(OC)c2F)cc(N)c1Cl [Cmpd 2, propargyl ester of 4-amino-3-chloro-6-(4-chloro-2-fluoro-3-methoxyphenyl)-pyridine-2-carboxylic acid]
[1]; Cmpd 2 3.75 g ae/ha
  Percent (%) injury rated visually 14 DAA Obs: 65%
[2]; Cmpd 2 3.75 g ae/ha
  Percent (%) injury rated visually 14 DAA Obs: 0%
[2]; Cmpd 2 7.5 g ae/ha
  Percent (%) injury rated visually 14 DAA Obs: 0%
[2]; Cmpd 2 15 g ae/ha
  Percent (%) injury rated visually 14 DAA Obs: 10%

## COc1c(Cl)ccc(-c2cc(N)c(Cl)c(C(=O)OCc3ccccc3)n2)c1F [Cmpd 3, benzyl ester of 4-amino-3-chloro-6-(4-chloro-2-fluoro-3-methoxyphenyl)-pyridine-2-carboxylic acid]
[3]; Cmpd 3 3.75 g ae/ha
  Percent (%) injury rated visually 14 DAA Obs: 10%
[3]; Cmpd 3 7.5 g ae/ha
  Percent (%) injury rated visually 14 DAA Obs: 0%
[3]; Cmpd 3 15 g ae/ha
  Percent (%) injury rated visually 14 DAA Obs: 0%
[4]; Cmpd 3 3.75 g ae/ha
  Percent (%) injury rated visually 14 DAA Obs: 40%
[4]; Cmpd 3 7.5 g ae/ha
  Percent (%) injury rated visually 14 DAA Obs: 40%
[4]; Cmpd 3 15 g ae/ha
  Percent (%) injury rated visually 14 DAA Obs: 35%
[5]; Cmpd 3 3.75 g ae/ha
  Percent (%) injury rated visually 14 DAA Obs: 15%
[5]; Cmpd 3 7.5 g ae/ha
  Percent (%) injury rated visually 14 DAA Obs: 50%
[5]; Cmpd 3 15 g ae/ha
  Percent (%) injury rated visually 14 DAA Obs: 40%

## potassium (K^+) salt of 4-amino-3-chloro-6-(4-chloro-2-fluoro-3-methoxyphenyl)-pyridine-2-carboxylic acid [Cmpd 4]
[1]; Cmpd 4 3.75 g ae/ha
  Percent (%) injury rated visually 14 DAA Obs: 50%
[1]; Cmpd 4 7.5 g ae/ha
  Percent (%) injury rated visually 14 DAA Obs: 80%
[4]; Cmpd 4 3.75 g ae/ha
  Percent (%) injury rated visually 14 DAA Obs: 20%
[4]; Cmpd 4 7.5 g ae/ha
  Percent (%) injury rated visually 14 DAA Obs: 15%
[4]; Cmpd 4 15 g ae/ha
  Percent (%) injury rated visually 14 DAA Obs: 40%
[2]; Cmpd 4 3.75 g ae/ha
  Percent (%) injury rated visually 14 DAA Obs: 0%
[2]; Cmpd 4 7.5 g ae/ha
  Percent (%) injury rated visually 14 DAA Obs: 0%
[2]; Cmpd 4 15 g ae/ha
  Percent (%) injury rated visually 14 DAA Obs: 10%
[5]; Cmpd 4 3.75 g ae/ha
  Percent (%) injury rated visually 14 DAA Obs: 0%
[5]; Cmpd 4 7.5 g ae/ha
  Percent (%) injury rated visually 14 DAA Obs: 15%
[5]; Cmpd 4 15 g ae/ha
  Percent (%) injury rated visually 14 DAA Obs: 40%
